From US9499495B2, “Quinazolines and azaquinazolines as dual inhibitors of RAS/RAF/MEK/ERK and PI3K/AKT/PTEN/mTOR pathways” (Asana Biosciences, LLC, priority 2013, dated 2016)

Key:
B-RAFV600E = target: T1, B-RAFV600E (Homo sapiens, UniProt P15056, V600E); test: B-RAFV600E radiometric assay; assay type: biochemical; conditions: read-out: Kinase assay B-Raf
T1 construct: purchased Millipore, USA 14-557
Experimental: Compound inhibition for B-RAFV600E was determined through radiometric assay using a BRAF enzyme (Catalog No. 14-557, Millipore, USA) and MEK-K97M protein as a substrate (Catalog No. 0785-0000-1, ProqQinase GmbH, Germany). The B-RAF kinase catalyzes the phosphorylation of MEK protein in the presence of gamma ATP (PLC-101, Jonaki, CCMB, Hyderabad), cold ATP and Mg^2+.
The phosphorylated protein product is detected by the scintillation counter Topcount® machine (Perkin Elmer). This assay has been adapted from the method previously reported by Yeh et al. (2007, Clinical Cancer Research; 13, 1576-1583). The assay measures the B-RAF mediated transfer of 32P from the gamma position of radiolabeled ATP onto MEK1-KD. The labeled phosphorylated protein was measured in MicroBeta® Trilux Counter (Perkin Elmer). The assay was validated with reference compounds RAF1 Kinase Inhibitor I and ZM 336372 inhibitor which are reported to be inhibitors of B-RAF enzyme (Lackey, 2000, Medicinal Chemistry Letters; 10(3):223-226; Kupcho, “Fluorescent High throughput kinase cascade assays for inhibitor characterization, RAF-MEK-ERK pathway, www.invitrogen.com, and Hall-Jackson, 1999, Chemical Biology; 6(8):559-568). B-RAF enzyme mixture (13 μL) was added to compound wells containing 2 μL of the NCE in 1% DMSO and incubated for 45 min at rt on a shaking incubator at 300 rpm. MEK-K97M (0.5 μg) and cold ATP to a final concentration of 5 μM, and hot ATP 0.1 μCi in a volume of 10 μL was added to each well and incubated for 2 h at rt on a shaking incubator at 300 rpm. The reaction was stopped by addition of […] (13 μL) containing ATP (1 mM: 495 μL 1N HCl and 5 μL 100 mM ATP). Aliquot (30 μL) was then transferred to the center of a 2 cm×2 cm P81 paper. P81 paper was washed 8×5 min each with ortho-phosphoric acid (0.5%). P81 papers are washed twice with acetone for […] Assay squares were allowed to dry for […] at 37° C. P81 paper are transferred to Optiplate™ (Perkin Elmer) and counted in a Topcount® counter (Perkin Elmer). Data was plotted against the compound concentration to generate dose-response curves and IC50 values were determined using a sigmoidal dose response curve fit GraphPad Prism® v5 software.

mTOR kinase = target: T2, mTOR kinase (Homo sapiens, UniProt P42345); test: mTOR kinase TR-FRET assay; assay type: biochemical
T2 construct: purchased Millipore, US
Experimental: Compound inhibition for mTOR kinase was determined by homogeneous TR-FRET assay using ULight-p70 S6K (Thr 389) peptide as substrate. mTOR enzyme (Millipore, US; […]) was used in the assay. The reaction buffer was HEPES (50 mM, pH 7.5), EGTA (1 mM), and MnCl2 (3 mM). Test compound was pre-incubated with mTOR for 30 min followed by 50 nM ULight-p70 S6K (Thr 389) peptide along with ATP (20 μM).
After incubating the reaction mixture for 30 min, Eu-labeled anti-phospho-substrate antibody (1 nM, Perkin Elmer, USA) was added. Fluorescence emission at […] was measured upon excitation at 340 nm. The compound dilution was carried out in 100% DMSO followed by a buffer dilution. The kinase reaction was incubated for 1 h at rt followed by the addition of substrate-ATP mix and incubated at rt for 1 h. The reaction was terminated by the addition of EDTA followed by the addition of detection mix. IC50 values were determined using a sigmoidal dose response curve fit, GraphPad Prism® v5 software.

pERK in A375 cells = test: In Cell Western (ICW) assay, pERK in A375 cells; assay type: cell-based; conditions: Homo sapiens, A-375, 3 h treatment
Experimental: Cell lines A375, A2058 and RKO obtained from the ATCC as provided above, were grown, and after attaining ˜80% confluency were trypsinized, centrifuged and resuspended in fresh media. The cells were seeded at the specified density (20,000 to 50,000) in a 96-well format black-well clear bottom plate (Corning) and incubated overnight at 37° C. in a 5% CO2 incubator. The next day, compound dilutions of test compounds were prepared in 100% DMSO followed by dilutions in respective media. Treatment of test compounds was performed for 3 h at 37° C. in 5% CO2 incubator. Following 3 h drug treatment, the conditional media was discarded and the cells were washed once with cPBS (PBS containing 0.1% magnesium chloride hexahydrate and 0.1% anhydrous calcium chloride) and fixed with 4% paraformaldehyde in cPBS for 1 h at rt. After fixing, the cells were given three washes using cPBST (cPBS containing 0.1% Triton™ X-100 reagent) and then blocked using blocking solution (5% skimmed milk powder or 5% BSA prepared in cPBST) for 2 h at rt with shaking at 300 rpm. The cells were again washed thrice with cPBST and incubated with primary antibody phospho-p44/42 MAPK(Erk1/2)(Thr202/204) antibody (Cell Signaling, Catalog # 9101L), phospho S6 ribosomal protein (Cell Signaling, Catalog #4858L), phospho AKT (Thr 308) (Cell Signaling, Catalog #9275) or phospho AKT (Ser 473) (Cell Signaling, Catalog #4060L) in specified dilutions (1:500-1:2500), prepared in respective blocking solutions, in a racker overnight at 4° C. The next day, the cells were washed with 1× Delfia® wash buffer (4×1 wash) and incubated with secondary antibody (Delfia®-Eu-N1 labeled anti-rabbit antibody; PerkinElmer, Catalog #AD0105; dilutions: 1:2000 to 1:6000 in Delfia® assay buffer (PerkinElmer, Catalog #1244-111)) for 2 h at rt in the dark at 300 rpm. The cells were then given four washes with 1× Delfia® wash buffer and incubated with Wallac Delfia® Enhancement solution (100 μL; PerkinElmer, Catalog #1244-105) for 20 min at rt in the dark at 300 rpm. The fluorescence emission was then read at 615 nm with an excitation wavelength of 340 nm using a Victor V5 Fluorometer (Perkin Elmer, US). The cells were then washed once with 1×cPBS and incubated with 100 μL of 0.5 mg/mL of Hoechst 33258 dye prepared in cPBS and read at 460 nm with 355 nm excitation, thereby evaluating the correction factor.
The % inhibition for the test compounds of formula (I) (new chemical entities (NCEs)) was calculated keeping DMSO control as 0% and the IC50 values were determined using sigmoidal dose response curve fit in GraphPad Prism® v5 software.

T2 sequence (P42345 1362-2549 limits assumed): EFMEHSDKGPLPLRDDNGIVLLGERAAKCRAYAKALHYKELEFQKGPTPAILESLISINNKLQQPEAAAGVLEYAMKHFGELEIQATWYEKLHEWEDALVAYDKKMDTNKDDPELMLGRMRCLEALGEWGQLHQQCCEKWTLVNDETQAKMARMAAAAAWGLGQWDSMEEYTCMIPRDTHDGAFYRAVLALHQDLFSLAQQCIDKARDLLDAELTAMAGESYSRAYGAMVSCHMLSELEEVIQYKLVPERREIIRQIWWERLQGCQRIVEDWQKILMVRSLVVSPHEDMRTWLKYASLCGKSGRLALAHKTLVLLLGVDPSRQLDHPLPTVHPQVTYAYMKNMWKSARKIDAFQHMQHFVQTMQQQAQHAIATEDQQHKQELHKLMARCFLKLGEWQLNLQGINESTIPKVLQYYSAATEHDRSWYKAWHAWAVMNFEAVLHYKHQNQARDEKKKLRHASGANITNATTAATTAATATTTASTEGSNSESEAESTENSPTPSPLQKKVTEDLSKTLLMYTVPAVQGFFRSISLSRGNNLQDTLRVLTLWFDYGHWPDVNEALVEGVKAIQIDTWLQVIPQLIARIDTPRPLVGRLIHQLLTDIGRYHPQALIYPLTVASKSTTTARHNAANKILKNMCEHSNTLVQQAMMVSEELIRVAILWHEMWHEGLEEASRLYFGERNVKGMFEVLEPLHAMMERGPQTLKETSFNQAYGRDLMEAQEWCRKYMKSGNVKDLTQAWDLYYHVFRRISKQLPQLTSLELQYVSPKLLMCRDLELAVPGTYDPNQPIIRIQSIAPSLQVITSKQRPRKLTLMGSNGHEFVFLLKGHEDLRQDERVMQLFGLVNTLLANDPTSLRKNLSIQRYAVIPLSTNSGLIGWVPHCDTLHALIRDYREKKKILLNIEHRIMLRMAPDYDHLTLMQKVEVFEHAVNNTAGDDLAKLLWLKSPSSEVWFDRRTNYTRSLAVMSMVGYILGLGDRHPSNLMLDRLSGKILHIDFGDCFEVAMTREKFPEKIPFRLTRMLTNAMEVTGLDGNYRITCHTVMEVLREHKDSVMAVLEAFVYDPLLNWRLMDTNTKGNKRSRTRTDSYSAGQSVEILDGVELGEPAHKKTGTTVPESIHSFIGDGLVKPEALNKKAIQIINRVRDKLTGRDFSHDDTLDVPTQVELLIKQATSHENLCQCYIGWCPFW
T1 sequence (P15056 416-766 V600E limits assumed): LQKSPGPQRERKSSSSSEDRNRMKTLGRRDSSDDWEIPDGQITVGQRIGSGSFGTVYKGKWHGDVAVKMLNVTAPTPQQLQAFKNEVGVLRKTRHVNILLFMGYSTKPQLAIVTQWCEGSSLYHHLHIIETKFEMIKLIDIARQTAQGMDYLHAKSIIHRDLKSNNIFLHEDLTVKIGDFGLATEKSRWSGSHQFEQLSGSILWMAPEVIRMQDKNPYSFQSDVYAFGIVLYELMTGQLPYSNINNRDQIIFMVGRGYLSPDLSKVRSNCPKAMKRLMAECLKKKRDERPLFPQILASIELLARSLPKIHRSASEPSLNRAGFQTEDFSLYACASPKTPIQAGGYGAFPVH

| SMILES | IC50 (B-RAFV600E) [nM] | IC50 (mTOR kinase) [nM] | IC50 (pERK in A375 cells) [nM] |
| --- | --- | --- | --- |
| COc1cc(-c2cccc(NS(=O)(=O)c3c(F)cccc3F)c2F)cc2c(N3CCOCC3)nc(-c3ccc(NC(=O)NCCO)cc3)nc12 [Example 12, 2,6-difluoro-N-(2-fluoro-3-(2-(4-(3-(2-hydroxyethyl)ureido)phenyl)-8-methoxy-4-morpholinoquinazolin-6-yl)phenyl)benzenesulfonamide] | 100 to 1000 | 1 to 100 | 1000 to 10000 |
| COc1cc(-c2cccc(NS(=O)(=O)c3c(F)cccc3F)c2F)cc2c(N3CCOCC3)nc(-c3cnc4[nH]ccc4c3)nc12 [Example 16, 2,6-difluoro-N-(2-fluoro-3-(8-methoxy-4-morpholino-2-(1H-pyrrolo[2,3-b]pyridin-5-yl)quinazolin-6-yl)phenyl)benzenesulfonamide] | 100 to 1000 | 100 to 1000 | 100 to 1000 |
| CNC(=O)Nc1ccc(-c2nc(N3CCOCC3)c3cc(-c4cccc(NS(=O)(=O)CCCF)c4F)cc(OC)c3n2)cc1 [Example 32, 3-fluoro-N-(2-fiuoro-3-(8-methoxy-2-(4-(3-methylureido)phenyl)-4-morpholinoquinazolin-6-yl)phenyl)propane-1-sulfonamide] | 100 to 1000 | 1 to 100 | 100 to 1000 |
| Nc1ccc(-c2nc(N3CCOCC3)c3cc(-c4cccc(NS(=O)(=O)CCCF)c4F)cc(OCC4CC4)c3n2)cn1 [Example 57, N-(3-(2-(6-aminopyridin-3-yl)-8-(cyclopropylmethoxy)-4-morpholinoquinazolin-6-yl)-2-fluorophenyl)-3-fluoropropane-1-sulfonamide] | 1 to 100 | 100 to 1000 | 1 to 100 |
| Nc1ccc(-c2nc(N3CCOCC3)c3cc(-c4cccc(NS(=O)(=O)CCCF)c4F)cc(OCCO)c3n2)cn1 [Example 58, N-(3-(2-(6-aminopyridin-3-yl)-8-(2-hydroxyethoxy)-4-morpholinoquinazolin-6-yl)-2-fluorophenyl)-3-fluoropropane-1-sulfonamide] | 1 to 100 | 1 to 100 | 100 to 1000 |
| CCNc1ccc(-c2nc(N3CCOCC3)c3nc(-c4cccc(NS(=O)(=O)CCCF)c4F)ccc3n2)cn1 [Example 123, N-(3-(2-(6-(ethylamino)pyridin-3-yl)-4-morpholinopyrido[3,2-d]pyrimidin-6-yl)-2-fluorophenyl)-3-fluoropropane-1-sulfonamide] | 1 to 100 | 1 to 100 | 1 to 100 |
| COc1cc(-c2cccc(NS(=O)(=O)CCCF)c2F)cc2c(N3CCOCC3)nc(-c3ccc(NC(C)=O)cc3)nc12 [Example 125, N-(4-(6-(2-fluoro-3-(3-fluoropropylsulfonamido)phenyl)-8-methoxy-4-morpholinoquinazolin-2-yl)phenyl)acetamide] | 100 to 1000 | 1 to 100 | 1 to 100 |
| CCOc1cc(-c2cccc(NS(=O)(=O)CCCF)c2F)cc2c(N3CCOC[C@H]3C)nc(-c3cnc(NC)nc3)nc12 [Example 138, (R)-N-(3-(8-ethoxy-2-(2-(methylamino)pyrimidin-5-yl)-4-(3-methylmorpholino)quinazolin-6-yl)-2-fluorophenyl)-3-fluoropropane-1-sulfonamide] | 1 to 100 | 100 to 1000 |  |
| C[C@@H]1COCCN1c1nc(-c2cnc(N)nc2)nc2c(OCCF)cc(-c3cccc(NS(=O)(=O)CCCF)c3F)cc12 [Example 141, (R)-N-(3-(2-(2-aminopyrimidin-5-yl)-8-(2-fluoroethoxy)-4-(3-methylmorpholino)quinazolin-6-yl)-2-fluorophenyl)-3-fluoropropane-1-sulfonamide] | 1 to 100 | 100 to 1000 |  |
| C[C@@H]1COCCN1c1nc(-c2cnc(N)c(F)c2)nc2c(OCCF)cc(-c3cccc(NS(=O)(=O)CCCF)c3F)cc12 [Example 142, (R)-N-(3-(2-(6-amino-5-fluoropyridin-3-yl)-8-(2-fluoroethoxy)-4-(3-methylmorpholino)quinazolin-6-yl)-2-fluorophenyl)-3-fluoropropane-1-sulfonamide] | 1 to 100 | 100 to 1000 |  |
| COc1cc(-c2cccc(NS(=O)(=O)CCCF)c2F)cc2c(N3CCOC[C@H]3C)nc(-c3cnc(N)cn3)nc12 [Example 143, (R)-N-(3-(2-(5-aminopyrazin-2-yl)-8-methoxy-4-(3-methylmorpholino)quinazolin-6-yl)-2-fluorophenyl)-3-fluoropropane-1-sulfonamide] | 1 to 100 | 100 to 1000 |  |
| COc1cc(-c2cccc(NS(=O)(=O)CCCF)c2F)cc2c(N3CCOC[C@H]3C)nc(-c3cnc(N)cc3C#N)nc12 [Example 144, (R)-N-(3-(2-(6-amino-4-cyanopyridin-3-yl)-8-methoxy-4-(3-methylmorpholino)quinazolin-6-yl)-2-fluorophenyl)-3-fluoropropane-1-sulfonamide] | 1 to 100 | 100 to 1000 |  |
